Eight molecules from patent US12180221B2, “Compounds and uses thereof” (JANSSEN PHARMACEUTICA NV, priority 2018, dated 2024) can be followed below.

One assay addresses T1, human SCD1 (Homo sapiens, UniProt O00767).
T1 construct: expressed in transfected cells; host or cells: yeast strain with the OLE1 gene deleted, carrying a plasmid (grown in SD-Ura)
T1 sequence (O00767 1-359): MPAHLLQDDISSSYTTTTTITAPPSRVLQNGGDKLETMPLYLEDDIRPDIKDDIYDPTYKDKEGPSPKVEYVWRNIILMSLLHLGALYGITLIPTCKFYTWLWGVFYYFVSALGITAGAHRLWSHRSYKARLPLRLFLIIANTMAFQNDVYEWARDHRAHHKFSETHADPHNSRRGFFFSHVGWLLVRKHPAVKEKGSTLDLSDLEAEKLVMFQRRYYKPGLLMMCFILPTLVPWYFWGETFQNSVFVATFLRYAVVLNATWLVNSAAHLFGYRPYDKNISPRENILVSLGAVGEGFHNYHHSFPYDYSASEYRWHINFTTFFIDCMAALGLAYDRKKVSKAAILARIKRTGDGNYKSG
As to the kind of experiment: Yeast growth assay, strain expressing human SCD1 as the sole desaturase (reduced growth as surrogate for SCD inhibition). It is filed as cell-based. The following applies: growth (OD600) after 40 h at 30° C.

The target in a further assay is T2, human SCD5 (Homo sapiens, UniProt Q86SK9).
T2 construct: expressed in transfected cells; host or cells: yeast strain with the OLE1 gene deleted, carrying a plasmid (grown in SD-Ura)
T2 sequence (Q86SK9 1-330): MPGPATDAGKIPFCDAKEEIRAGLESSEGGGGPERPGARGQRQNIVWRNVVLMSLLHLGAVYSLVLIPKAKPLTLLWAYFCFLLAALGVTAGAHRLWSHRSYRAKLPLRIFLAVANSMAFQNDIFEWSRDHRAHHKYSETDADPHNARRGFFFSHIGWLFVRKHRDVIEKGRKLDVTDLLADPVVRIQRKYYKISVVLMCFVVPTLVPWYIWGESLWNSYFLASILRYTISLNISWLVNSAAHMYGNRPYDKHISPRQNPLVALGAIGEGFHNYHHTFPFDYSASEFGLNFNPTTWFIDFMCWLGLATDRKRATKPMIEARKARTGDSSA
Briefly: Yeast growth assay, strain expressing human SCD5 as the sole desaturase (reduced growth as surrogate for SCD inhibition). It is filed as cell-based. The following applies: growth (OD600) after 40 h at 30° C.

Where only a bound is given, the exact number is not on record here.

The IC50 is the midpoint of a concentration-inhibition curve. A low value points to greater potency in that assay. With `CN1N=C(C(=O)Nc2ncc(Cc3cccc(F)c3)s2)CCC1=O` [Compound 221, N-(5-(3-fluorobenzyl)thiazol-2-yl)-1-methyl-6-oxo-1,4,5,6-tetrahydropyridazine-3-carboxamide], the IC50 at human SCD1 and at human SCD5 was more than 45 µM throughout.

At human SCD1, `CN1N=C(c2nc3cc(Cc4cccc(Cl)c4)cnc3[nH]2)CCC1=O` [Compound 255] yielded an IC50 of more than 45 µM.

`Cn1cc(C(=O)Nc2ccc(COc3cccc(Cl)c3)cn2)ccc1=O` [Compound 263]: the IC50 at human SCD5 was 0.17 µM.

Consider `Cc1ccc(Cc2ccc(C(=O)Nc3ccc(=O)n(C)n3)nc2)cc1C` [Compound 312], for which the IC50 on human SCD1 turned out to be 1.82 µM; against human SCD5, 0.03 µM.

On to `CC1(C)CN(C(=O)c2cccc(Cc3ccc(F)cc3)n2)CCO1` [Compound 339], for which the figures for the IC50 at human SCD1 and on human SCD5 were more than 45 µM and 17.7 µM, respectively.

Regarding `O=C(Nc1ccc(Cc2cccc(F)c2)cn1)c1cc[nH]c(=O)n1` [Compound 425], the IC50 on human SCD1 and against human SCD5 was more than 45 µM in each case.

For `O=C(Nc1ccc(Cc2cccc(F)c2)cn1)c1cnc2[nH]c(=O)oc2c1` [Compound 463], the IC50 against human SCD1 and at human SCD5 was more than 45 µM each time.

For the molecule `Cn1cc(C(=O)Nc2ccc(Cc3ccc(F)c(F)c3)cn2)ncc1=O` [Compound 673], the results for the IC50 at human SCD1 and on human SCD5 were 3.1 µM and 0.36 µM, respectively.
